Where two headings read alike, the source gives them in different places. Numbered stars: 1 amine (or outer) side, 2 acyl side, 3 side chain; on linkers, the order of the positions; unused ones are H or OH. Square brackets hold non-standard residues; d marks the D form. Side chains are listed from the residue outwards. Peptide text beside a SMILES is read from it. * marks the point of attachment. γGlu = O=C(O)[C@H](CCC(=O)[*:2])N[*:1]; αMeF = C[C@](N)(Cc1ccccc1)C(=O)O; αMeK = C[C@](N)(CCCCN)C(=O)O; Lauroyl = CCCCCCCCCCCC(=O)*; αMeS = C[C@](N)(CO)C(=O)O; Nle = CCCC[C@H](N)C(=O)O; AEEA = NCCOCCOCC(=O)O; Aib = CC(C)(N)C(=O)O
Assays:
Type in all cases: cell-based
[1] = biological target: T1, human GLP-1 receptor (GLP-1R) (Homo sapiens, UniProt P43220); experiment: cAMP assay, human GLP-1R cells
T1 construct: expressed in transfected cells
T1 sequence (P43220 24-463): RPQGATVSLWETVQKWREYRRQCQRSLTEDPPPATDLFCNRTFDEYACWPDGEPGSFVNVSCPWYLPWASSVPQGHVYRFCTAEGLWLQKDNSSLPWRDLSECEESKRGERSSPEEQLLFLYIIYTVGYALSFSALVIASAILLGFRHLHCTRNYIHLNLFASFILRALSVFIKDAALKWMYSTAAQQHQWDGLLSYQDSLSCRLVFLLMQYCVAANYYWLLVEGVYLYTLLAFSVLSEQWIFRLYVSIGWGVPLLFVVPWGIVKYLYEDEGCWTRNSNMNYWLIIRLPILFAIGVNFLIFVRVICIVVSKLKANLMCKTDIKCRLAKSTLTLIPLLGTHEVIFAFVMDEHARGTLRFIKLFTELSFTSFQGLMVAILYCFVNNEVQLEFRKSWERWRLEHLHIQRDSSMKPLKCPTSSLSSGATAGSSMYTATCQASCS
Procedure, shortened: (§1)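 Peptide-stimulated cAMP measured by two-step HTRF after a 30 min room-temperature incubation with receptor-expressing cells (hGLP-1R, hGIPR at 1×10^5 cells/ml; hGCGR at 2×10^5 cells/ml). Duplicate dilutions; EC50 from 4-parameter logistic fit of % Delta F.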

GLP-1R (INS1e assay) = biological target: T2, GLP-1R (INS1e assay) (Rattus norvegicus, UniProt P32301); experiment: INS1e assay, cAMP activity at GLP-1R; settings: bis-lipidated peptides
T2 construct: endogenous in cells; host or cells: INS-1E cells
T2 sequence (P32301 22-463): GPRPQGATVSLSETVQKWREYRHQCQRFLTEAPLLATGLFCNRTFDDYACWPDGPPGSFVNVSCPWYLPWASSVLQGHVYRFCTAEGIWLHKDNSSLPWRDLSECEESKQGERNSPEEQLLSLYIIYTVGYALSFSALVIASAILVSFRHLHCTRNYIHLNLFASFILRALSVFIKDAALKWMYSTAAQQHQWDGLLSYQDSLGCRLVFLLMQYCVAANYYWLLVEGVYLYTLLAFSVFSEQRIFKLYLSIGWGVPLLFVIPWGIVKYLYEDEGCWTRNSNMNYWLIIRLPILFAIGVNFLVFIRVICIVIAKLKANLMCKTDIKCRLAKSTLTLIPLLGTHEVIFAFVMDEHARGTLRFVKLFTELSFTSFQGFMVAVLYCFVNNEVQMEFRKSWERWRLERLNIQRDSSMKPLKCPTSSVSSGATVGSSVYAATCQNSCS
Experimental: cAMP levels are measured using a commercially available cAMP dynamic 2 HTRF kit (Cisbio, Cat #62AM4PEJ), following the two step protocol as per manufacturer's recommendations. In brief; anti-cAMP cryptate (donor fluorophore) and cAMP-d2 (acceptor fluorophore) are made up separately by diluting each 1/20 in conjugate & lysis buffer provided in the kit. 5 μL anti-cAMP cryptate is added to wells of the assay plate, and 5 μL cAMP-d2 is added to wells except non-specific binding (NSB) wells, to which conjugate and lysis buffer are added. […] EC50 values of the synthetic peptides determined in cAMP assays are then determined.

[2] = biological target: T3, human glucagon receptor (GCGR) (Homo sapiens, UniProt P47871); experiment: cAMP assay, human GCGR cells; settings: tris-lipidated peptides; second replicate; read-out: Primary assay EC50 Gluc-R (n2)
T3 construct: expressed in transfected cells
T3 sequence (P47871 26-477): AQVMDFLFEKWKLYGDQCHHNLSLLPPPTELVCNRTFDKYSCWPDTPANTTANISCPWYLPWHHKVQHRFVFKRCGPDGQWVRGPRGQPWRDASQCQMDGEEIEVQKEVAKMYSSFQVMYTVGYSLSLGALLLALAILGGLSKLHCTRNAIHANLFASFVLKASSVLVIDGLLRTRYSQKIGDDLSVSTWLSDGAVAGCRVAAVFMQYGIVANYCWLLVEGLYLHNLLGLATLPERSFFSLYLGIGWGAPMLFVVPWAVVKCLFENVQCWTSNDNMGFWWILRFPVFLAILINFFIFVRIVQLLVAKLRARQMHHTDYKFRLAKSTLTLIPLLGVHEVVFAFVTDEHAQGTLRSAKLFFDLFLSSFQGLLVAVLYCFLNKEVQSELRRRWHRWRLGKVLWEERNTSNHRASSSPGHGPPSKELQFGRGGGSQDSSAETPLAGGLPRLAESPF
Procedure, shortened: as §1

[3] = biological target: T4, human glucose-dependent insulinotropic peptide receptor (GIPR) (Homo sapiens, UniProt P48546); experiment: cAMP assay, human GIPR cells; settings: tris-lipidated peptides; second replicate; read-out: Primary assay EC50 GIP-R (n2)
T4 construct: expressed in transfected cells
T4 sequence (P48546 22-466): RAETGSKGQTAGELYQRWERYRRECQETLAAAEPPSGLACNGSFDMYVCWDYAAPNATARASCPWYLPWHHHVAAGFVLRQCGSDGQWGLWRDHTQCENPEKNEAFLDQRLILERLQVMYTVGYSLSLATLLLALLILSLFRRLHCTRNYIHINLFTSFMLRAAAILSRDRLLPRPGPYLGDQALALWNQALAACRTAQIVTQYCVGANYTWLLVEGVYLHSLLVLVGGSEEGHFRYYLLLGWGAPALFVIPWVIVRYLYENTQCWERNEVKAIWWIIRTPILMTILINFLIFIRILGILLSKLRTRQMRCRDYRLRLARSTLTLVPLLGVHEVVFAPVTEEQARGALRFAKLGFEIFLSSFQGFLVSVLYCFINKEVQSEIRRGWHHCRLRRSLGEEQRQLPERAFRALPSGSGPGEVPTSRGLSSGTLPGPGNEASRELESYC
Procedure, shortened: as §1

[4] = bis-lipidated peptides, mean of n1 and n2, read-out: Primary assay EC50 Mean pM GLP-1R
[5] = bis-lipidated peptides, replicate n1, read-out: Primary assay EC50 GLP-1R n1
[6] = bis-lipidated peptides, replicate n2, read-out: Primary assay EC50 GLP-1R n2
[7] = mean of n1 and n2, read-out: INS1e assay EC50 Mean pM GLP-1R
[8] = replicate n1, read-out: INS1e assay EC50 GLP-1R n1
[9] = replicate n2, read-out: INS1e assay EC50 GLP-1R n2

| EC50 [1, 4] [pM] | EC50 [1, 5] [pM] | EC50 [1, 6] [pM] | EC50 (GLP-1R (INS1e assay); [7]) [pM] | EC50 (GLP-1R (INS1e assay); [8]) [pM] | EC50 (GLP-1R (INS1e assay); [9]) [pM] | EC50 ([1]; tris-lipidated peptides, mean of n1 and n2, read-out: Primary assay EC50 Mean pM GLP-1R) [pM] | EC50 ([1]; tris-lipidated peptides, replicate n1, read-out: Primary assay EC50 GLP-1R n1) [pM] | EC50 ([1]; tris-lipidated peptides, replicate n2, read-out: Primary assay EC50 GLP-1R n2) [pM] | EC50 [2] [nM] | EC50 [3] [nM] | Structure (SMILES) |
| --- | --- | --- | --- | --- | --- | --- | --- | --- | --- | --- | --- |
| 8.4 | 4.36 | 12.4 | 577 | 812 | 342 | – | – | – | – | – | CCCCCCCCCCCC(=O)N[C@@H](CCC(=O)NCCOCCOCC(=O)NCCOCCOCC(=O)NCCCC[C@H](NC(=O)[C@H](C)NC(=O)[C@@H](NC(=O)[C@H](Cc1ccccc1)NC(=O)[C@H](CCC(=O)O)NC(=O)[C@](C)(CCCCN)NC(=O)[C@H](C)NC(=O)[C@H](C)NC(=O)[C@H](CCC(=O)O)NC(=O)CNC(=O)[C@H](CCC(=O)O)NC(=O)[C@H](CC(C)C)NC(=O)[C@H](Cc1ccc(O)cc1)NC(=O)[C@H](CO)NC(=O)[C@H](CO)NC(=O)[C@H](CCCCNC(=O)COCCOCCNC(=O)COCCOCCNC(=O)CC[C@H](NC(=O)CCCCCCCCCCC)C(=O)O)NC(=O)[C@H](CC(=O)O)NC(=O)[C@H](CO)NC(=O)[C@@H](NC(=O)[C@](C)(Cc1ccccc1)NC(=O)[C@H](CO)NC(=O)CNC(=O)[C@H](CCC(=O)O)NC(=O)C(C)(C)NC(=O)[C@@H](N)Cc1c[nH]cn1)[C@@H](C)O)[C@@H](C)CC)C(=O)N[C@H](C(=O)N[C@H](C(=O)N[C@@H](CCC(=O)O)C(=O)NCC(=O)NCC(N)=O)C(C)C)C(C)C)C(=O)O [compound 257] (H-H[Aib]EGS[αMeF]TSDK([AEEA-AEEA-γGlu-Lauroyl])SSYLEGEAA[αMeK]EFIAK([AEEA-AEEA-γGlu-Lauroyl])VVEGG-NH2) |
| 5.4 | 6.73 | 4.14 | 552 | 700 | 403 | – | – | – | – | – | CCCCCCCCCCCC(=O)N[C@@H](CCC(=O)NCCOCCOCC(=O)NCCOCCOCC(=O)NCCCC[C@H](NC(=O)[C@H](CO)NC(=O)[C@](C)(CO)NC(=O)[C@@H](NC(=O)[C@H](CC(=O)O)NC(=O)[C@H](CO)NC(=O)[C@@H](NC(=O)[C@](C)(Cc1ccccc1)NC(=O)[C@H](CO)NC(=O)CNC(=O)[C@H](CCC(=O)O)NC(=O)C(C)(C)NC(=O)[C@@H](N)Cc1c[nH]cn1)[C@@H](C)O)C(C)C)C(=O)N[C@@H](CC(C)C)C(=O)N[C@@H](CCC(=O)O)C(=O)NCC(=O)N[C@@H](CCC(=O)O)C(=O)N[C@@H](C)C(=O)N[C@@H](C)C(=O)N[C@@](C)(CCCCN)C(=O)N[C@@H](CCC(=O)O)C(=O)N[C@@H](Cc1ccccc1)C(=O)N[C@H](C(=O)N[C@@H](CCCCNC(=O)COCCOCCNC(=O)COCCOCCNC(=O)CC[C@H](NC(=O)CCCCCCCCCCC)C(=O)O)C(=O)N[C@@H](Cc1c[nH]c2ccccc12)C(=O)N[C@H](C(=O)N[C@H](C(=O)N[C@@H](CCC(=O)O)C(=O)NCC(=O)NCC(N)=O)C(C)C)C(C)C)[C@@H](C)CC)C(=O)O [compound 262] (H-H[Aib]EGS[αMeF]TSDV[αMeS]SK([AEEA-AEEA-γGlu-Lauroyl])LEGEAA[αMeK]EFIK([AEEA-AEEA-γGlu-Lauroyl])WVVEGG-NH2; N-terminus assumed) |
| – | – | 3.66 | – | 110 | – | – | – | – | – | – | CCCCCCCCCCCC(=O)N[C@@H](CCC(=O)NCCOCCOCC(=O)NCCOCCOCC(=O)NCCCC[C@H](NC(=O)[C@H](C)NC(=O)[C@@H](NC(=O)[C@](C)(Cc1ccccc1)NC(=O)[C@H](CCC(=O)O)NC(=O)[C@](C)(CCCCN)NC(=O)[C@H](C)NC(=O)[C@H](C)NC(=O)[C@H](CCC(=O)O)NC(=O)CNC(=O)[C@H](CCC(=O)O)NC(=O)[C@H](CC(C)C)NC(=O)[C@H](CCCCNC(=O)COCCOCCNC(=O)COCCOCCNC(=O)CC[C@H](NC(=O)CCCCCCCCCCC)C(=O)O)NC(=O)[C@H](CO)NC(=O)[C@](C)(CO)NC(=O)[C@@H](NC(=O)[C@H](CC(=O)O)NC(=O)[C@H](CO)NC(=O)[C@@H](NC(=O)[C@](C)(Cc1ccccc1)NC(=O)[C@H](CO)NC(=O)CNC(=O)[C@H](CCC(=O)O)NC(=O)C(C)(C)NC(=O)[C@@H](N)Cc1c[nH]cn1)[C@@H](C)O)C(C)C)[C@@H](C)CC)C(=O)N[C@H](C(=O)N[C@H](C(=O)N[C@@H](CCC(=O)O)C(=O)NCC(=O)NCC(N)=O)C(C)C)C(C)C)C(=O)O [compound 405] (H-H[Aib]EGS[αMeF]TSDV[αMeS]SK([AEEA-AEEA-γGlu-Lauroyl])LEGEAA[αMeK]E[αMeF]IAK([AEEA-AEEA-γGlu-Lauroyl])VVEGG-NH2) |
| – | – | – | 104 | 113 | 95.2 | – | – | – | – | – | CCCCCCCCCCCC(=O)N[C@@H](CCC(=O)NCCOCCOCC(=O)NCCOCCOCC(=O)NCCCC[C@H](NC(=O)[C@H](C)NC(=O)[C@@H](NC(=O)[C@H](CCCC)NC(=O)[C@H](CCC(=O)O)NC(=O)[C@](C)(CCCCN)NC(=O)[C@H](C)NC(=O)[C@H](C)NC(=O)[C@H](CCC(=O)O)NC(=O)CNC(=O)[C@H](CCC(=O)O)NC(=O)[C@H](CC(C)C)NC(=O)[C@H](CCCCNC(=O)COCCOCCNC(=O)COCCOCCNC(=O)CC[C@H](NC(=O)CCCCCCCCCCC)C(=O)O)NC(=O)[C@H](CO)NC(=O)[C@](C)(CO)NC(=O)[C@@H](NC(=O)[C@H](CC(=O)O)NC(=O)[C@H](CO)NC(=O)[C@@H](NC(=O)[C@](C)(Cc1ccccc1)NC(=O)[C@H](CO)NC(=O)CNC(=O)[C@H](CCC(=O)O)NC(=O)C(C)(C)NC(=O)[C@@H](N)Cc1c[nH]cn1)[C@@H](C)O)C(C)C)[C@@H](C)CC)C(=O)N[C@H](C(=O)N[C@H](C(=O)N[C@@H](CCC(=O)O)C(=O)NCC(=O)NCC(N)=O)C(C)C)C(C)C)C(=O)O [compound 407] (H-H[Aib]EGS[αMeF]TSDV[αMeS]SK([AEEA-AEEA-γGlu-Lauroyl])LEGEAA[αMeK]E[Nle]IAK([AEEA-AEEA-γGlu-Lauroyl])VVEGG-NH2) |
| – | – | – | – | – | – | 212 | 165 | 259 | 19.9 | 19.9 | CCCCCCCCCCCC(=O)N[C@@H](CCC(=O)NCCOCCOCC(=O)NCCOCCOCC(=O)NCCCC[C@H](NC(=O)[C@H](Cc1ccc(O)cc1)NC(=O)[C@H](CO)NC(=O)[C@](C)(CO)NC(=O)[C@@H](NC(=O)[C@H](CC(=O)O)NC(=O)[C@H](CO)NC(=O)[C@@H](NC(=O)[C@](C)(Cc1ccccc1)NC(=O)[C@H](CO)NC(=O)CNC(=O)[C@H](CCC(=O)O)NC(=O)C(C)(C)NC(=O)[C@@H](N)Cc1c[nH]cn1)[C@@H](C)O)C(C)C)C(=O)N[C@@H](CCC(=O)O)C(=O)NCC(=O)N[C@@H](CCC(=O)O)C(=O)N[C@@H](C)C(=O)N[C@@H](C)C(=O)N[C@@](C)(CCCCN)C(=O)N[C@@H](CCCCNC(=O)COCCOCCNC(=O)COCCOCCNC(=O)CC[C@H](NC(=O)CCCCCCCCCCC)C(=O)O)C(=O)N[C@@H](Cc1ccccc1)C(=O)N[C@H](C(=O)N[C@@H](C)C(=O)N[C@@H](Cc1ccccc1)C(=O)N[C@@H](CCCCNC(=O)COCCOCCNC(=O)COCCOCCNC(=O)CC[C@H](NC(=O)CCCCCCCCCCC)C(=O)O)C(=O)N[C@H](C(=O)N[C@@H](CCC(=O)O)C(=O)NCC(=O)NCC(N)=O)C(C)C)[C@@H](C)CC)C(=O)O [compound 486] (H-H[Aib]EGS[αMeF]TSDV[αMeS]SYK([AEEA-AEEA-γGlu-Lauroyl])EGEAA[αMeK]K([AEEA-AEEA-γGlu-Lauroyl])FIAFK([AEEA-AEEA-γGlu-Lauroyl])VEGG-NH2; N-terminus assumed) |
